Experimental data as given in patent US7960561B2, “2-(phenylamino) benzimidazole derivatives and their use as modulators of small-conductance calcium-activated potassium channels” (Neurosearch A/S, priority 2005, dated 2011).
Where a name gives a salt, the structure may show the parent alone.

Structure (SMILES) | melting point
Clc1ccc(Nc2nc3ccccc3[nH]2)cc1 (as salt: hydrochloride) [Example 1, N-(Benzimidazol-2-yl)-4-chloroaniline] | 238 to 240 °C
FC(F)(F)Oc1ccc(Nc2nc3ccccc3[nH]2)cc1 (as salt: hydrochloride) [Example 6, N-(Benzimidazol-2-yl)-4-(trifluoromethoxy)aniline] | 250 to 251 °C
CN(c1ccc(Cl)c(Cl)c1)c1nc2ccccc2[nH]1 (as salt: hydrochloride) [Example 22, N-(Benzoimidazol-2-yl)-N-methyl-3,4-dichloroaniline] | > 275 °C
FC(F)(F)c1ccc(Nc2nc3ccccc3[nH]2)cc1 [Example 4, N-(Benzimidazol-2-yl)-4-(trifluoromethyl)aniline] | 199 to 200 °C
FC(F)(F)c1cccc(Nc2nc3ccccc3[nH]2)c1 [Example 10, N-(Benzimidazol-2-yl)-3-(trifluoromethyl)aniline] | 160 to 162 °C
Cc1c(Nc2nc3ccccc3[nH]2)cccc1C(F)(F)F [Example 19, N-(Benzimidazol-2-yl)-2-methyl-3-(trifluoromethyl)aniline] | 204 to 206 °C
Fc1c(Nc2nc3ccccc3[nH]2)cccc1C(F)(F)F [Example 20, N-(Benzimidazol-2-yl)-2-fluoro-3-(trifluoromethyl)aniline] | 91 to 92 °C
Fc1ccc(Nc2nc3ccccc3[nH]2)c(F)c1F [Example 21, N-(Benzimidazol-2-yl)-2,3,4-trifluoroaniline] | 182 to 183 °C
N#Cc1cccc(Nc2nc3ccccc3[nH]2)c1 [Example 23, N-(Benzoimidazol-2-yl)-3-cyanoaniline] | 272 to 274 °C
CC(C)c1ccc(Nc2nc3ccccc3[nH]2)cc1 [Example 25, N-(Benzoimidazol-2-yl)-4-isopropylaniline] | 179 to 180 °C
c1ccc(-c2ccccc2Nc2nc3ccccc3[nH]2)cc1 [Example 28, N-(Benzoimidazol-2-yl)-2-phenylaniline] | 152 to 154 °C

Other lines, results leading:

melting point | Structure (SMILES)
255 to 260 °C | FC(F)(F)c1cc(Nc2nc3ccccc3[nH]2)ccc1Cl (as salt: hydrochloride) [Example 2, N-(Benzimidazol-2-yl)-4-chloro-3-(trifluoromethyl)aniline]
> 270 °C | Clc1ccc(Nc2nc3ccccc3[nH]2)cc1Cl (as salt: hydrochloride) [Example 3, N-(Benzimidazol-2-yl)-3,4-dichloroaniline]
252 to 257 °C | Clc1cccc(Nc2nc3ccccc3[nH]2)c1 (as salt: hydrochloride) [Example 5, N-(Benzimidazol-2-yl)-3-chloroaniline]
215 to 216 °C | Fc1ccc(Nc2nc3ccccc3[nH]2)cc1 (as salt: hydrochloride) [Example 7, N-(Benzimidazol-2-yl)-4-fluoroaniline]
283 to 284 °C | Fc1ccc(Nc2nc3ccccc3[nH]2)cc1F (as salt: hydrochloride) [Example 8, N-(Benzimidazol-2-yl)-3,4-difluoroaniline]
292 to 293 °C | Fc1cc(F)cc(Nc2nc3ccccc3[nH]2)c1 (as salt: hydrochloride) [Example 9, N-(Benzimidazol-2-yl)-3,5-difluoroaniline]
255 to 257 °C | Fc1ccc(Nc2nc3ccccc3[nH]2)cc1C(F)(F)F (as salt: hydrochloride) [Example 11, N-(Benzimidazol-2-yl)-4-fluoro-3-(trifluoromethyl)aniline]
246 to 248 °C | Cc1cc(Nc2nc3ccccc3[nH]2)ccc1F (as salt: hydrochloride) [Example 12, N-(Benzimidazol-2-yl)-4-fluoro-3-methylaniline]
245 to 246 °C | FC(F)(F)c1cc(Nc2nc3ccccc3[nH]2)cc(C(F)(F)F)c1 (as salt: hydrochloride) [Example 13, N-(Benzimidazol-2-yl)-3,5-bis(trifluoromethyl)aniline]
306 to 307 °C | Fc1ccc(Nc2nc3ccccc3[nH]2)cc1Cl (as salt: hydrochloride) [Example 14, N-(Benzimidazol-2-yl)-3-chloro-4-fluoroaniline]
317 to 318 °C | Clc1cc(Cl)cc(Nc2nc3ccccc3[nH]2)c1 (as salt: hydrochloride) [Example 15, N-(Benzimidazol-2-yl)-3,5-dichloroaniline]
262 to 264 °C | FC(F)(F)c1cc(Nc2nc3ccccc3[nH]2)ccc1Br (as salt: hydrochloride) [Example 16, N-(Benzimidazol-2-yl)-4-bromo-3-(trifluoromethyl)aniline]
> 265 °C | Cc1ccc(Nc2nc3ccccc3[nH]2)cc1C(F)(F)F (as salt: hydrochloride) [Example 17, N-(Benzimidazol-2-yl)-4-methyl-3-(trifluoromethyl)aniline]
263 to 265 °C | Fc1cc(Nc2nc3ccccc3[nH]2)cc(C(F)(F)F)c1 (as salt: hydrochloride) [Example 18, N-(Benzimidazol-2-yl)-3-fluoro-5-(trifluoromethyl)aniline]
212 to 213 °C | COc1cc(Nc2nc3ccccc3[nH]2)cc(C(F)(F)F)c1 (as salt: hydrochloride) [Example 24, N-(Benzoimidazol-2-yl)-3-methoxy-5-(trifluoromethyl)aniline]
